Patent US6444829B1, “Pyrrolidine compounds” (Hoffmann-La Roche Inc., priority 2000, dated 2002)

Q: With `CC(=O)N(Cc1ccccc1)NC(=O)[C@@H]1C[C@@H](S)CN1S(=O)(=O)c1ccc2ccccc2c1` as the molecule, how does the melting point read?
A: 64 °C
